Experiment: active ingredient concentration over time in 50% ethanol solution (pullulan precipitating agent)
Type: physicochemical
Conditions: 50% ethanol solution in buffer, 25 minutes, one data point every five minutes (FIG. 7)
Procedure: FIGS. 6-8 show examples of removing pullulan by precipitation using an alcohol or PEG. As an alternative, pullulan can be removed by precipitation using either an alcohol or polyethylene glycol (PEG). In this approach, the precipitating agent is added to the solution and causes pullulan to form a white solid. The active ingredient is not affected by this addition. The solid can be stopped from getting into the solution by either an appropriate container or a simple filter. […] In FIG. 7, a 50% ethanol solution was prepared in buffer. The active ingredient concentration was measured over time for 25 minutes (one data point every five minutes). […] Furthermore, measurements of the same concentration in straight buffer yield the same measured concentration of active ingredient.

- measured concentration of active ingredient over time: no statistical difference
Compound: CC(=O)C(=O)OO [active ingredient, peroxy pyruvic acid]
